# The source made the active and inactive calls. No cut-off for these calls is given here.
# What was measured:
# Format in all cases: cell membranes
# [1] = species: Rattus norvegicus; test: Binding affinity to mangiferin receptor in rat islet cell membrane stationary phase assessed as total active binding sites per islet bed by chromatographic analysis
# [2] = Binding affinity to mangiferin receptor in rat islet cell membrane stationary phase by chromatographic analysis
# [3] = species: Rattus norvegicus; test: Binding affinity to mangiferin receptor in rat islet cell membrane stationary phase assessed as ligand-membrane complex by infrared spectroscopic analysis
structure (smiles),measurement,setting,value
O=c1c2cc(O)c(O)cc2oc2cc(O)c([C@@H]3O[C@H](CO)[C@@H](O)[C@H](O)[C@H]3O)c(O)c12 [MANGIFERIN],Activity,[1],22.7 µmol
same,Kd,[2],400 nM
same,Activity,[3],Active

# Source: ChEMBL document CHEMBL3046703, “Study of mangiferin-receptor affinity by cell membrane chromatography using rat pancreas” (Med Chem Res, 2012)
